Experimental data taken from US4339576A, “Anti-asthmatic, anti-allergic, anti-cholinergic, bronchodilator and anti-inflammatory 1-[(benzoylphenyl)-lower-alkyl]piperidines and analogs thereof” (Sterling Drug Inc., priority 1981, dated 1982).
Structures can show the parent of a compound that is named as a salt. Where two headings read alike, the source gives them in different places.

Legend:
[1] = system: carrageenin-induced foot edema; experiment: Inhibition of carrageenin-induced foot edema (C.E.); type: in vivo, rats; details: Rattus norvegicus, read-out: percent inhibition, C.E.
[2] = system: adjuvant-induced arthritis; experiment: Inhibition of adjuvant-induced arthritis (A.A.); type: in vivo; details: Rattus norvegicus, oral, rats, read-out: percent inhibition, A.A.; for inhibition in vivo at 80 µmol/kg: .08 millimoles/kg; for inhibition in vivo at 40 µmol/kg: .04 millimoles/kg; for inhibition in vivo at 324 µmol/kg: .324 millimoles/kg
[3] = system: passive cutaneous anaphylaxis; experiment: Passive cutaneous anaphylaxis test (PCA); type: in vivo; design: key: Actv.: active; Weak: weakly active; Inac.: inactive; details: rats
[4] = system: histamine induced bronchoconstriction; experiment: Histamine induced bronchoconstriction test in anesthetized dogs; type: in vivo; details: intraduodenally; for ED40: Canis lupus familiaris, intraduodenal, read-out: AED40 (Approximate Effective Dose resulting in 40% inhibition of bronchoconstriction)
[5] = system: human basophils; experiment: In vitro histamine release from human basophils test; type: cell-based; details: for EC50: read-out: AEC50 (Approximate Effective Concentration resulting in 50% inhibition of allergic release of histamine)
[6] = system: acetylcholine-induced abdominal constriction; experiment: Acetylcholine-induced abdominal constriction test (Ach); type: in vivo, mice; details: Mus musculus
[7] = Toxicity observations in the carrageenin edema test; type: in vivo; details: C.E. test, .324 millimoles/kg, oral, rats; for dead: animals dead
Protocol: Anti-inflammatory activity was determined using (1) the inhibition of carrageenin-induced foot edema test described by Winter et al., Proc. Soc. […] Therap. […] J. Vet.
All data were obtained on oral administration in rats.

[8] = system: bradykinin; experiment: Anti-bradykinin test (BDK); type: in vivo; details: po
[9] = system: guinea pig tracheal contractions by carbachol; experiment: Relaxation of guinea pig tracheal contractions by carbachol; details: guinea pig trachea, read-out: EC50 (effective concentration to produce 50% relaxation), Carb
[10] = system: guinea pig tracheal contractions by barium; experiment: Relaxation of guinea pig tracheal contractions by barium; details: guinea pig trachea

Work on CC(C(=O)N1CCCC(CN2CCOCC2)C1)c1cccc(C(=O)c2ccccc2)c1.Cl (stereo not drawn) [Example 1D, 1-[α-(3-Benzoylphenyl)propionyl]-3-(4-morpholinylmethyl)piperidine hydrochloride] yielded an inhibition in vivo at 80 µmol/kg ([1]; .08 millimoles/kg, oral, rats) of 0%, an inhibition in vivo at 324 µmol/kg ([1]; .324 millimoles/kg, oral, rats) of 65% and an inhibition in vivo at 80 µmol/kg [2] of 37%. For the same compound, the “PCA activity (qualitative statement)” value [3] was “Actv”.

With CC(CN1CCC(N2CCCCC2)CC1)c1ccc(C(=O)c2ccccc2)cc1 (stereo not drawn) [Example 3D, 1-[2-(4-Benzoylphenyl)propyl]-4-(1-piperdinyl)piperidine dihydrochloride] the inhibition in vivo at 80 µmol/kg ([1]; .08 millimoles/kg, oral, rats) was 42%, the inhibition in vivo at 324 µmol/kg ([1]; .324 millimoles/kg, oral, rats) was 46% and the inhibition in vivo at 80 µmol/kg [2] was 86%. The “AED40 (Approximate Effective Dose resulting in 40% inhibition of bronchoconstriction)” value [4] was “Inac”, the EC50 [5] was 90000 nM and the “PCA activity (qualitative statement)” value [3] was “Inac”. It also gave an ED50 ([6]; po) of 29 mg/kg.

In the case of CC(C(=O)N1CCCC(CN2CCCCC2)C1)c1cccc(C(=O)c2ccccc2)c1 (stereo not drawn) [Example 1F, 1-[α-(3-Benzoylphenyl)propionyl]-3-(1-piperidinylmethyl)piperidine hydrochloride], the inhibition in vivo at 80 µmol/kg ([1]; .08 millimoles/kg, oral, rats) is reported as 20%, the “PCA activity (qualitative statement)” value [3] is reported as “Actv” and the “Toxic (result in words)” value [7] is reported as “Toxic”. The dead [7] was 5/8.

For CC(CN1CCC(NC(=O)C2CC2)CC1)c1ccc(C(=O)c2ccccc2)cc1 (stereo not drawn) [Example 6A, 1-[2-(4-benzoylphenyl)propyl]-4-cyclopropanecarbonylaminopiperidine], the inhibition in vivo at 80 µmol/kg ([1]; .08 millimoles/kg, oral, rats) was 72%, the inhibition in vivo at 324 µmol/kg ([1]; .324 millimoles/kg, oral, rats) was 77% and the ED40 [4] was 7.3 mg/kg. The “AEC50 (Approximate Effective Concentration resulting in 50% inhibition of allergic release of histamine)” value [5] was “Inac”, the “PCA activity (qualitative statement)” value [3] was “Weak” and the ED50 ([6]; po) was 16 mg/kg.

With CC(C(=O)N1CCCCC1CN1CCCCC1)c1cccc(C(=O)c2ccccc2)c1 (stereo not drawn) [Example 1E, 1-[α-(3-Benzoylphenyl)propionyl]-2-(1-piperidinylmethyl)piperidine] the inhibition in vivo at 80 µmol/kg ([1]; po) was 11% and the inhibition in vivo at 324 µmol/kg ([1]; po) was 67%.

For CC(CN1CCC(N)CC1)c1ccc(C(=O)c2ccccc2)cc1.Cl.Cl (stereo not drawn) [Example 5A, 1-[2-(4-benzoylphenyl)propyl]-4-aminopiperidine-dihydrochloride], the “AED40 (Approximate Effective Dose resulting in 40% inhibition of bronchoconstriction)” value [4] was “Inac” and the ED50 ([6]; po) was 42 mg/kg.

Work on CC(=O)NC1CCN(CC(C)c2cccc(C(=O)c3ccccc3)c2)CC1.Cl (stereo not drawn) [Example 3A, 1-[2-(3-benzoylphenyl)propyl]-4-acetylaminopiperidine hydrochloride] yielded an inhibition in vivo at 80 µmol/kg ([1]; .08 millimoles/kg, oral, rats) of 29%, an inhibition in vivo at 324 µmol/kg ([1]; .324 millimoles/kg, oral, rats) of 58% and an inhibition in vivo at 80 µmol/kg [2] of 75%. The ED50 ([6]; po) was 3.6 mg/kg, the ED50 [8] was 24 mg/kg and the dead [7] was 2/8.

In the case of CC(c1cccc(C(=O)c2ccccc2)c1)N1CCCC(CN2CCOCC2)C1 (stereo not drawn) [Example 4C, 1-[1-(3-Benzoylphenyl)ethyl]-3-(4-morpholinylmethyl)piperidine dihydrochloride monohydrate], the inhibition in vivo at 80 µmol/kg ([1]; .08 millimoles/kg, oral, rats) is reported as 0% and the inhibition in vivo at 324 µmol/kg ([1]; .324 millimoles/kg, oral, rats) is reported as 55%.

CCC(=O)NC1CCN(CC(C)c2ccc(C(=O)c3ccccc3)cc2)CC1 (stereo not drawn) [Example 6E, 1-[2-(4-Benzoylphenyl)propyl]-4-propionylaminopiperidine] showed an ED40 [4] of 30 mg/kg.

For CC(C(=O)N1CCC(CN2CCCCC2)CC1)c1cccc(C(=O)c2ccccc2)c1 (stereo not drawn) [Example 1A, 1-[α-(3-benzoylphenyl)propionyl]-4-(1-piperidinylmethyl)piperidine], the inhibition in vivo at 80 µmol/kg ([1]; .08 millimoles/kg, oral, rats) was 14%, the “Toxic (result in words)” value [7] was “Toxic” and the dead [7] was 6/8.

With CC(c1cccc(C(=O)c2ccccc2)c1)N1CCCCC1CN1CCOCC1.Cl.Cl (stereo not drawn) [Example 4B, 1-[1-(3-Benzoylphenyl)ethyl]-2-(4-morpholinylmethyl)piperidine dihydrochloride] the inhibition in vivo at 80 µmol/kg ([1]; .08 millimoles/kg, oral, rats) was 16%, the inhibition in vivo at 324 µmol/kg ([1]; .324 millimoles/kg, oral, rats) was 48% and the convulsions ([7]; animals affected at 15 min.) was 2/8.

CC(CN1CCC(N2CCCCC2)CC1)c1cccc(C(=O)c2ccccc2)c1.Cl.Cl (stereo not drawn) [Example 3B, 1-[2-(3-Benzoylphenyl)propyl]-4-(1-piperidinyl)piperidine dihydrochloride] showed an inhibition in vivo at 80 µmol/kg ([1]; .08 millimoles/kg, oral, rats) of 67%, an inhibition in vivo at 324 µmol/kg ([1]; .324 millimoles/kg, oral, rats) of 74% and an ED50 ([6]; po) of 7.4 mg/kg. The ataxic ([7]; animals affected) was 1/8, the hypothermia ([7]; animals affected) was 8/8 and the dead [7] was 1/8.

CC(C(=O)N1CCC(CN2CCOCC2)CC1)c1cccc(C(=O)c2ccccc2)c1 (stereo not drawn) [Example 1C, 1-[α-(3-Benzoylphenyl)propionyl]-4-(4-morpholinylmethyl)piperidine hydrochloride] showed an inhibition in vivo at 80 µmol/kg ([1]; .08 millimoles/kg, oral, rats) of 18%, an inhibition in vivo at 324 µmol/kg ([1]; .324 millimoles/kg, oral, rats) of 61% and an inhibition in vivo at 80 µmol/kg [2] of 30%.

For CC(CN1CCC(NC(=O)C2CCCCC2)CC1)c1ccc(C(=O)c2ccccc2)cc1 (stereo not drawn) [Example 6I, 1-[2-(4-Benzoylphenyl)propyl]-4-cyclohexanecarbonylaminopiperidine], the EC50 [9] was 2600 nM and the “Ba (active or inactive)” value [10] was “Active”.

With CC(=O)NC1CCN(CC(C)c2ccc(C(=O)c3ccccc3)cc2)CC1.Cl.O (stereo not drawn) [Example 3C, 1-[2-(4-Benzoylphenyl)propyl]-4-acetylaminopiperidine hydrochloride monohydrate] the inhibition in vivo at 80 µmol/kg ([1]; .08 millimoles/kg, oral, rats) was 41%, the inhibition in vivo at 324 µmol/kg ([1]; .324 millimoles/kg, oral, rats) was 53% and the inhibition in vivo at 80 µmol/kg [2] was 19%. For the same compound, the ED40 [4] was ~5 mg/kg, the EC50 [5] was > 10000 nM and the “PCA activity (qualitative statement)” value [3] was “Inac”. For the same compound, the ED50 ([6]; po) was 5.6 mg/kg and the ED50 [8] was 46 mg/kg.

With CCCC(=O)NC1CCN(CC(C)c2ccc(C(=O)c3ccccc3)cc2)CC1 (stereo not drawn) [Example 6B, 1-[2-(4-Benzoylphenyl)propyl]-4-butyrylaminopiperidine] the inhibition in vivo at 80 µmol/kg ([1]; .08 millimoles/kg, oral, rats) was 54%, the inhibition in vivo at 324 µmol/kg ([1]; .324 millimoles/kg, oral, rats) was 63% and the inhibition in vivo at 40 µmol/kg [2] was 38%. The ED40 [4] was 2 mg/kg, the EC50 [5] was > 100000 nM and the “PCA activity (qualitative statement)” value [3] was “Inac”. The ED50 ([6]; po) was 16 mg/kg.

Compound CC(c1cccc(C(=O)c2ccccc2)c1)N1CCCCC1CN1CCCCC1 (stereo not drawn) [Example 4D, 1-[1-(3-Benzoylphenyl)ethyl]-2-(1-piperidinylmethyl)piperidine dihydrochloride monohydrate] has an inhibition in vivo at 80 µmol/kg ([1]; .08 millimoles/kg, oral, rats) of 27%, an inhibition in vivo at 324 µmol/kg ([1]; .324 millimoles/kg, oral, rats) of 59% and an inhibition in vivo at 324 µmol/kg [2] of 56%.

Compound CC(CN1CCC(NC(=O)c2ccccc2)CC1)c1ccc(C(=O)c2ccccc2)cc1 (stereo not drawn) [Example 6C, 1-[2-(4-Benzoylphenyl)propyl]-4-benzoylaminopiperidine] has an inhibition in vivo at 80 µmol/kg ([1]; .08 millimoles/kg, oral, rats) of 50%, an inhibition in vivo at 324 µmol/kg ([1]; .324 millimoles/kg, oral, rats) of 57% and an inhibition in vivo at 80 µmol/kg [2] of 51%. The ED50 ([6]; po) was 23 mg/kg.

For CC(CN1CCC(CN2CCCCC2)CC1)c1cccc(C(=O)c2ccccc2)c1 (stereo not drawn) [Example 2, 1-[2-(3-benzoylphenyl)propyl]-4-(1-piperidinylmethyl)piperidine dihydrochloride], the inhibition in vivo at 80 µmol/kg ([1]; .08 millimoles/kg, oral, rats) was 47%, the inhibition in vivo at 324 µmol/kg ([1]; .324 millimoles/kg, oral, rats) was 64% and the inhibition in vivo at 20 µmol/kg ([2]; .02 millimoles/kg) was 59%. For the same compound, the inhibition in vivo at 40 µmol/kg [2] was 67%, the inhibition in vivo at 80 µmol/kg [2] was 95% and the inhibition in vivo at 324 µmol/kg [2] was 9%. It also gave an ED50 ([6]; po) of 22 mg/kg, an ED50 ([6]; sc) of 11 mg/kg and an ED50 [8] of 24 mg/kg.

With CC(c1cccc(C(=O)c2ccccc2)c1)N1CCC(CN2CCOCC2)CC1 (stereo not drawn) [Example 4A, 1-[1-(3-benzoylphenyl)ethyl]-4-(4-morpholinylmethyl)piperidine] the inhibition in vivo at 80 µmol/kg ([1]; .08 millimoles/kg, oral, rats) was 0%, the inhibition in vivo at 324 µmol/kg ([1]; .324 millimoles/kg, oral, rats) was 38% and the ED40 [4] was > 30 mg/kg. For the same compound, the “PCA activity (qualitative statement)” value [3] was “Actv”.

For CC(=O)NC1CCN(CC(C)c2ccc(C(O)c3ccccc3)cc2)CC1 (stereo not drawn) [Example 7, 1-[2-(α-hydroxy-4-benzylphenyl)propyl]-4-acetylaminopiperidine], the EC50 [9] was 2900 nM and the “Ba (active or inactive)” value [10] was “Slightly Active”.

With CC(=O)N(C)C1CCN(CC(C)c2ccc(C(=O)c3ccccc3)cc2)CC1.Cl (stereo not drawn) [Example 3G, 1-[2-(4-Benzoylphenyl)propyl]-4-(N-acetyl-N-methylamino)piperidine hydrochloride] the EC50 [9] was 340 nM and the “Ba (active or inactive)” value [10] was “Inact”.

For CC(C(=O)N1CCCCC1CN1CCOCC1)c1cccc(C(=O)c2ccccc2)c1 (stereo not drawn) [Example 1B, 1-[α-(3-Benzoylphenyl)propionyl]-2-(4-morpholinylmethyl)piperidine hydrochloride], the inhibition in vivo at 80 µmol/kg ([1]; .08 millimoles/kg, oral, rats) was 9%, the inhibition in vivo at 324 µmol/kg ([1]; .324 millimoles/kg, oral, rats) was 67% and the inhibition in vivo at 80 µmol/kg [2] was 0%.
